Test results from patent US7919531B2, “3,5-dihydroxy-2,4-cyclohexadienones and their derivatives, dietary compositions and fortified food containing them and their uses” (DSM IP Assets B.V., priority 2006, dated 2011).

How the values were obtained:
[1] = molecular target: T1, human serotonin re-uptake transporter (hSERT) (Homo sapiens, UniProt P31645); assay: Serotonin uptake inhibition in HEK-293 cells expressing hSERT; type: cell-based; details: for Effect on serotonin re-uptake (hSERT dependent uptake of tritiated serotonin into transfected cells): result in words; for Ki: transfected HEK-293 cells, Ki from measured IC50 by Cheng-Prusoff, average +/− s.e.m. of two experiments, read-out: Inhibition constant Ki for tritiated serotonin uptake
T1 construct: host or cells: HEK-293
From the text: HEK-293 cells stably expressing the human serotonin re-uptake transporter (hSERT) were obtained from R. Blakely, Vanderbilt University, USA. The cells were routinely grown in Dulbeco's Modified Eagles Medium (Bioconcept) containing 10% fetal calf serum, penicillin, streptomycin, L-glutamine and the antibiotic G418 and passaged by trypsinisation. On the day of assay, cells from 80% confluent flasks were harvested by gentle washing with warm phosphate buffered saline (PBS). Cells were then washed once by centrifugation and re-suspended in Krebs Ringers bicarbonate buffer (Sigma) supplemented with 35 μM pargyline, 2.2 mM CaCl2, 1 mM ascorbic acid and 5 mM N-2-hydroxyethylpiperazine-N′-2-ethanesulfonic acid (buffer called “Hepes”) at a concentration of 10,000 cells in 160 ul of buffer, and aliquoted into round bottomed polypropylene 96 well microtitre plates (Corning) at 10,000 cells per well. Serotonin uptake into the cells was determined by addition of radio-labeled (3H) serotonin (GE Healthcare) to a concentration of 20 nM, and incubation for 40 minutes at 37° C. with gentle shaking. At the end of this time unincorporated label was removed by filtration though Unifilter 96 GF/B plates (Perkin Elmer) using a Tomtec Mach III M cell harvester. The incorporated serotonin retained on the plates was quantified by liquid scintillation counting using Microscint-40/Topcount (Perkin Elmer).
The effect of (−)-humulone and lupulone on the serotonin uptake was determined by their inclusion in the assay at a range of concentrations between 0.03 and 100 μM for 10 minutes prior to and during the addition of (3H) serotonin. Serotonin uptake via the transporter was inhibited by (−)-humulone and lupulone, respectively, in a dose dependent manner.
The calculated inhibition constants Ki, derived from the measured IC50 using the Cheng-Prusoff equation (Y. C. Cheng, W. H. Prusoff, Biochem. Pharmacol. 1973, 22, p. 3099-3108), for inhibition of serotonin uptake by (−)-humulone and lupulone are shown in Table 1.

mouse [2] = assay: Primary observation (Irwin) test in the mouse; type: in vivo; details: 30 mg/kg i.p., 5 mice per group
From the text: The method, which detects the first toxic dose, the active dose-range and the principal effects of a test substance on behaviour and physiological function, follows that described by Irwin (Irwin S. Comprehensive observational assessment: A systematic quantitative procedure for assessing the behavioural and physiologic state of the mouse. Psychopharmacologia, 1968, 13, 222-257).
3 treated groups were compared with the same control at any one time. All animals within a treatment group were observed simultaneously.
Behavioural modifications, physiological and neurotoxicity symptoms, pupil diameter and rectal temperature were recorded according to a standardized observation grid derived from that of Irwin. The grid contains the following items: lethality*, convulsions*, tremor*, Straub*, sedation, excitation, abnormal gait* (rolling, tip-toe), jumps*, motor incoordination*, writhes*, piloerection*, stereotypies* (sniffing, chewing, head movements), head twitches*, scratching*, respiration*, aggressiveness*, fear, reactivity to touch, muscle tone, loss of righting reflex, ptosis, exopthalmos, loss of grasping, akinesia, catalepsy, loss of traction, loss of corneal reflex, analgesia, defecation, salivation, lacrimation, pupil diameter (Unit=1/45 mm) and rectal temperature.
Observations were performed 15, 30, 60, 120 and 180 minutes after administration of the test substance ((−)-humulone) and also 24 hours later. The symptoms marked (*) were observed continuously from 0 to 15 minutes after administration. 5 mice were studied per group.
(−)-Humulone was solubilized in physiological saline and injected into mice intraperitoneally.

mouse [3] = assay: Marble burying test in the mouse; type: in vivo; details: for Number of marbles covered by sawdust, mean ± s.e.m.: vehicle 20.1 ± 1.7
From the text: The method applied here follows that described by Broekkamp et al. (European Journal of Pharmacology 1986, 126, 223-229.). Mice (n=15 per treatment group) were individually placed in transparent plastic cages (33×21×18 cm) with 5 cm of sawdust on the floor and 25 marbles (diameter 1 cm) grouped in the centre of the cage. A second, up-turned, cage served as a lid. The number of marbles covered by sawdust (by at least two-thirds) was counted at the end of the 30-minute test period. Tests were performed by investigators blind to the drug treatment protocol.
Prior to testing, all test cages and marbles were “impregnated” by leaving 10 naive mice in each cage for 15 minutes.
(−)-Humulone was solubilized in physiological saline. The control substance fluoxetine (Prozac®) (Lilly), batches n^o A069667 and A058238) was dispersed in 0.2% hydroxypropylmethylcellulose (HPMC) in physiological saline.
(−)-Humulone was evaluated at 3, 10 and 30 mg/kg, administered i.p. 30 minutes before the test, and compared with a vehicle control group. Fluoxetine (32 mg/kg), administered under the same experimental conditions, was used as a reference substance.
Data were analysed by comparing treated groups with vehicle control using unpaired Student's t-tests.

mouse [4] = assay: Light dark box test in the mouse after subchronic oral gavage; type: in vivo; details: for Number of crossings, mean ± sem / Time spent in light compartment, mean ± sem: 5 h and 1 h before test; for Number of crossings, mean ± sem: vehicle 6.5 ± 1.0; for Time spent in light compartment, mean ± sem: vehicle 64.4 ± 4.7; for Number of crossings, % change / Time spent in light compartment, % change: versus vehicle control
From the text: The method, which detects anxiolytic activity, follows that described by Crawley (Pharmacol. Biochem. Behav. 1981, 15, 695-699). Anxiolytics increase the time spent in the light compartment.
Animals were placed into the light compartment of a 2-compartment box with one half light and open (25×27×27 cm) and the other half dark and closed (20×27×27 cm). The time spent in each compartment as well as the number of times the animal crosses from one side to the other is scored during a 3-minute test. 15 mice were studied per group. The test was performed blind. […]
Clobazam (32 mg/kg orally), administered 1 hour before the test, will be used as reference substance. Mice in this group received additional administrations of vehicle at 25 and 5 hours before the test in order to maintain experimental blinding.

[5] = 50 mg/kg p.o., listed as (−)-Humulone

T1 sequence (P31645 whole entry): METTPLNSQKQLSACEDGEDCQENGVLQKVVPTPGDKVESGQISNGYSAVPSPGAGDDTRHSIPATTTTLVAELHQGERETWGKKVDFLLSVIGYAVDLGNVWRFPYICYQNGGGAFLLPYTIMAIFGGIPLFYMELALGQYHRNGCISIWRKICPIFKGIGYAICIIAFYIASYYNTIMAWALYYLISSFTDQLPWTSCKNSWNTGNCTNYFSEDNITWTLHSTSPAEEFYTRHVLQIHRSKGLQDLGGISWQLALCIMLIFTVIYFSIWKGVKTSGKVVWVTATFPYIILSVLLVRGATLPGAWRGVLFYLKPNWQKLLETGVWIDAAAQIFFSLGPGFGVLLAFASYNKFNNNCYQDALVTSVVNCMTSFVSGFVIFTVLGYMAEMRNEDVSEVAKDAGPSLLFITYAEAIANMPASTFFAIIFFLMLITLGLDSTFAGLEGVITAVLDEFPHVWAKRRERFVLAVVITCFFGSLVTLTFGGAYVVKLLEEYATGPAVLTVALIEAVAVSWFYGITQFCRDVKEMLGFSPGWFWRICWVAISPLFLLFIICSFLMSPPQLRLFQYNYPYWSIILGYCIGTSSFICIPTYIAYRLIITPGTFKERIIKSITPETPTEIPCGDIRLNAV

With “6-hydroxycolupulone [compound 5, reference compound]” the “Effect on serotonin re-uptake (hSERT dependent uptake of tritiated serotonin into transfected cells)” value (“Effect on serotonin re-uptake” for short) [1] was “no effect”.
With “6-hydroxylupulone [compound 4, reference compound]” the “Effect on serotonin re-uptake” value [1] was “no effect”.
`CC(C)=CCC1C(=O)C(C(=O)CC(C)C)=C(O)C(O)(CC=C(C)C)C1=O` (single isomer, unassigned; (-)) [(−)-humulone] was tested, and the “Decreased fear, number of mice” value (mouse [2]; at 30 minutes) was 3 mice, the “Decreased muscle tone, number of mice” value (mouse [2]; at 30 minutes) was 4 mice and the “Decreased fear, number of mice” value (mouse [2]; at 60 minutes) was 1 mouse. For the same compound, the “Decreased muscle tone, number of mice” value (mouse [2]; at 60 minutes) was 1 mouse, the “Number of marbles covered by sawdust, % change from control” value (“Number … % change from control” below) (mouse [3]; 3 mg/kg i.p. −30 min) was −9% and the “Number of marbles covered by sawdust, mean ± s.e.m.” value (from here on “Number … mean ± s.e.m.”) (mouse [3]; 3 mg/kg i.p. −30 min) was 18.3 ± 1.7 (NS). For the same compound, the “Number … % change from control” value (mouse [3]; 10 mg/kg i.p. −30 min) was −13%, the “Number … mean ± s.e.m.” value (mouse [3]; 10 mg/kg i.p. −30 min) was 17.5 ± 2.0 (NS) and the “Number … % change from control” value (mouse [3]; 30 mg/kg i.p. −30 min) was −81%. For the same compound, the “Number … mean ± s.e.m.” value (mouse [3]; 30 mg/kg i.p. −30 min) was 3.8 ± 1.5 (***), the Ki [1] was 16.9 µM and the “Number of crossings, mean ± sem” value (mouse [4]; 50 mg/kg p.o. -24 h) was 13.7 ± 1.3. The “Time spent in light compartment, mean ± sem” value (shortened to “Time spent … mean ± sem”) (mouse [4]; 50 mg/kg p.o. -24 h) was 95.4 ± 3.8 s, the “Number of crossings, % change” value (mouse [4]; 50 mg/kg p.o.) was “+111%” and the “Time spent in light compartment, % change” value (“Time spent … % change” for short) (mouse [4]; 50 mg/kg p.o.) was “+48%”. The “Number of crossings, % change” value (mouse [4]; [5]) was “+111%”, the “Time spent … % change” value (mouse [4]; [5]) was “+48%” and the “Number of crossings, mean ± sem” value (mouse [4]; 100 mg/kg p.o. -24 h) was 7.9 ± 1.0. For the same compound, the “Time spent … mean ± sem” value (mouse [4]; 100 mg/kg p.o. -24 h) was 86.4 ± 8.9 s, the “Number of crossings, % change” value (mouse [4]; 100 mg/kg p.o.) was “+22%” and the “Time spent … % change” value (mouse [4]; 100 mg/kg p.o.) was “+34%”. The “Time spent … % change” value (mouse [4]; 100 mg/kg p.o., listed as (−)-Humulone) was “+34%”, the “Number of crossings, mean ± sem” value (mouse [4]; 200 mg/kg p.o. -24 h) was 8.3 ± 1.2 and the “Time spent … mean ± sem” value (mouse [4]; 200 mg/kg p.o. -24 h) was 71.5 ± 8.8 s. The “Number of crossings, % change” value (mouse [4]; 200 mg/kg p.o.) was “+28%”, the “Time spent … % change” value (mouse [4]; 200 mg/kg p.o.) was “+11%” and the “Time spent … % change” value (mouse [4]; 200 mg/kg p.o., listed as (−)-Humulone) was “+11%”.
`CNCCC(Oc1ccc(C(F)(F)F)cc1)c1ccccc1` (stereo not shown) [FLUOXETINE, fluoxetine, reference compound] was tested, and the “Number … % change from control” value (mouse [3]; 32 mg/kg i.p. −30 min) was −91% and the “Number … mean ± s.e.m.” value (mouse [3]; 32 mg/kg i.p. −30 min) was 1.9 ± 1.0 (***).
For `CC(C)=CCC1=C(O)C(C(=O)CC(C)C)=C(O)C(CC=C(C)C)(CC=C(C)C)C1=O` [Lupulone, lupulone], the “Effect on serotonin re-uptake” value [1] was “inhibited” and the Ki [1] was 6 µM.
In the case of `CC(C)=CCC(=O)C1(O)C(O)=C(C(=O)CC(C)C)C(=O)C1CC=C(C)C` (stereo not shown) [compound 3, isohumulone, reference compound], the “Effect on serotonin re-uptake” value [1] is reported as “no effect”.
